Source: patent US20130217908A1, “STABILISATION OF RADIOPHARMACEUTICAL PRECURSORS” (GE HEALTHCARE LIMITED, priority 2010, published 2013)

What was measured:
[1] = Storage stability of the precursor of formula II with or without a drying agent, degradation by 19F NMR; type: physicochemical
Protocol: To test the stability of the precursor of formula II when packed with a drying agent, a sample of the precursor was analysed by ^19F and ^1H measurements.
The following drying agents were used:
Molecular sieve: 0.4 nm, Merck, Art. 5708, beads about 2 mm, pore size 4A Silica: Kiselgel, Merck, product no. 1.01969.5000
The drying agents used in the tests are typical drying agents for removing water from solvents and desiccators. The drying agents were both dried at 120° C. for about 90 hours before use.
The storage conditions for the precursor together with a drying agent were tested by storing together in the bottom of a small sample glass (mixed together) placed on a shelf in the lab (i.e. at room temperature). Also some samples without drying agent were set up. The first analysis of the samples with solid product was performed after 3.5 months storage and a second analysis was carried out after 5 months storage.

[2] = Earlier stability testing of the compound of formula II at set storage temperatures; type: physicochemical
[3] = solid, stored in a small sample glass at room temperature
[4] = solid, stored in a small sample glass at room temperature, listed as precursor
[5] = stored in freezer, reference, no drying agent

Which results are given for CCOC(=O)[C@]1(NC(=O)OC(C)(C)C)C[C@@H](OS(=O)(=O)C(F)(F)F)C1 [PRECURSOR, 1-(N-(t-butoxycarbonyl)amino)-3-[((trifluoromethyl)sulfonyl)oxy]-cyclobutane-1-carboxylic acid ethyl ester]?
19F NMR results, degradation (mole %) after 3.5 months [1, 3]: 30.7 mole %; 19F NMR results, degradation (mole %) after 3.5 months [1, 4]: about 30 mole %; 19F NMR results, degradation (mole %) after 5 months [1, 3]: 96.6 mole %; 19F NMR results, degradation (mole %) after 5 months [1, 4]: about 97 mole %; 19F NMR results, degradation (mole %) after 3.5 months [1, 5]: 0.7 mole %; 19F NMR results, degradation (mole %) after 5 months [1, 5]: 0.6 mole %; hygroscopicity (observation) [2]: hygroscopic; period over which the compound is stable ([2]; stability testing at 25° C.): ~1 month; stability at storage conditions ([2]; storage between −20° C. and −5° C.): acceptable stability
